Reference: patent US7396525B2, “Care/makeup compositions comprising a 2-alkylideneaminooxyacetamide compound for stimulating the growth of the hair or eyelashes and/or slowing loss thereof” (L'Oreal, priority 2003, dated 2008)

Molecular target: T1, PGF synthase (PGFS) (Homo sapiens, UniProt P42330)
T1 construct: made in house
T1 sequence (P42330 1-323): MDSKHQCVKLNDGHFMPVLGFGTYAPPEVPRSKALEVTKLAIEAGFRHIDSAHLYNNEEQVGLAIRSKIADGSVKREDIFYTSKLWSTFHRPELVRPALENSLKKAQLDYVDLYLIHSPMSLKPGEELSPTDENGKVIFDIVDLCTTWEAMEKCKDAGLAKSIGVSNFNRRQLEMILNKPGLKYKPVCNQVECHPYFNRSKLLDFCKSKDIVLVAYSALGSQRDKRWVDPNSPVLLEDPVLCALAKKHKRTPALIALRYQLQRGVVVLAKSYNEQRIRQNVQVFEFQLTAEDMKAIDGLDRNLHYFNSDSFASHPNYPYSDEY
Assay: Test on PGF synthase (spectrophotometric, 340 nm, 9,10-phenanthrenequinone/β-NADPH)
Format: biochemical
Experimental: The enzyme PGFS is obtained as disclosed in FR-A-02/05067, at a concentration of 0.5 mg/ml, in suspension in an appropriate medium, and is blocked at −80° C. For the requirements of the test, this suspension is defrosted and stored in ice.
Furthermore, a Tris 100 mM, pH=6.5, buffer comprising 20 μM of 9,10-phenanthrenequinone*(P2896, Sigma-Aldrich, L'isle D'Abeau Chesne, BP 701, 38297, Saint Quentin Fallavier) and 100 μM of β-NADPH (N1630, Sigma-Aldrich, L'isle D'Abeau Chesne, BP 701, 38297, Saint Quentin Fallavier) is prepared in a brown bottle (exclusion of light). *A mother solution assaying 1 mM is prepared in absolute ethanol and is brought to 40° C.; the bottle is placed in an ultrasonic bath to facilitate the dissolution of the product.
0.950 ml of this buffer (brought beforehand to 37° C.) is introduced into the cell of a spectrophotometer (Perkin-Elmer, Lambda 2) thermostatically controlled at 37° C., the wavelength of which for the measurement is adjusted to 340 nm. 0.05 ml of enzymatic suspension at 37° C. is introduced into the cell concomitantly with the recording (corresponding to a fall in optical density at 340 nm). The maximum rate of reaction is noted.

`C/C(=N/OCC(=O)Nc1ccccc1)c1cccs1` [Compound 1, N-Phenyl-2({[(1Z)-1-(thien-2-yl)-ethylidene]amino}oxy)acetamide] showed an IC50 of 50 to 100 µM.
